From patent US20050208496A1, “Methods of testing for bronchial asthma or chronic obstructive pulmonary disease” (Genox Research, Inc., priority 2002, published 2005)

Tested on: mouse counterpart genes
Experiment: Mouse GeneChip (MG-U74A to MG-U74C) analysis of lung and trachea of the OVA antigen-exposed bronchial hypersensitivity model, S-Sal group versus S-OVA group
Type: in vivo
Conditions: S-Sal group vs S-OVA group

ovalbumin [OVA antigen, ovalbumin antigen used for sensitization and inhalation to induce bronchial hypersensitivity in mice]
0.286: Fold Change, viral hemorrhagic septicemia virus(VHSV) induced gene 1 (mouse probe 109385_at) (3rd, chip B, P/A call A)
0.526: Fold Change, A kinase (PRKA) anchor protein 10 (mouse probe 163162_at) (3rd, chip B, P/A call A)
0.588: Fold Change, thioredoxin reductase 1 (mouse Probe ID 161043_r_at) (chip A, 3rd)
0.385: Fold Change, sialyltransferase 1 (beta-galactoside alpha-2,6-sialyltransferase) (mouse Probe ID 94431_at) (chip A, 1st)
1.4: Fold Change, ESTs, Highly similar to AF116721 8 PRO0907 [H. sapiens] (mouse probe 114151_at) (3rd, chip B, P/A call A) | Fold Change, heparan sulfate (glucosamine) 3-)-sulfotransferase 1 (mouse Probe ID 102410_at) (chip A, 1st) | Fold Change, interleukin 13 receptor, alpha 2 (mouse Probe ID 95344_at) (chip A, 1st) | Fold Change, thioredoxin reductase 1 (mouse Probe ID 161043_r_at) (chip A, 1st)
4.2: Fold Change, interferon-stimulated protein (15 kDa) (mouse Probe ID 98822_at) (chip A, 2nd)
0.625: Fold Change, secreted end transmembrane 1 (mouse probe 115133_at) (3rd, chip B, P/A call A) | Fold Change, cyclin D3 (mouse Probe ID 160545_at) (chip A, 1st)
4.6: Fold Change, a disintegrin and metalloprotease domain 8 (mouse probe 103024_at) (3rd, chip A, P/A call P)
1.2: Fold Change, histocompatibility 2, Q region locus 7 (mouse probe 98438_f_at) (3rd, chip A, P/A call P, counterpart of human probe 37420_i_at) | Fold Change, histocompatibility 2, Q region locus 7 (mouse probe 98438_f_at) (3rd, chip A, P/A call P, counterpart of human probe 37421_f_at) | Fold Change, interferon-induced protein with tetratricopeptide repeats 1 (mouse probe 168299_f_at) (3rd, chip C, P/A call P) | Fold Change, osteoblast specific factor 2 (fasciclin I-like) (mouse Probe ID 92593_at) (chip A, 1st) | Fold Change, thioredoxin reductase 1 (mouse Probe ID 99985_at) (chip A, 1st) | Fold Change, intercellular adhesion molecule (mouse Probe ID 96752_at) (chip A, 2nd) | Fold Change, interleukin 13 receptor, alpha 2 (mouse Probe ID 95344_at) (chip A, 3rd)
1.5: Fold Change, ESTs Putative Ortholog of ISG-54K gene (mouse probe 164273_at) (3rd, chip B, P/A call A) | Fold Change, interleukin 13 receptor, alpha 2 (mouse Probe ID 95344_at) (chip A, 2nd) | Fold Change, thrombospondin 1 (mouse Probe ID 160469_at) (chip A, 3rd) | Fold Change, RIKEN cDNA 2610017M01 gene (mouse Probe ID 105606_at) (chip B, 1st)
2: Fold Change, small inducible cytokine B subfamily (Cys-X-Cys), member 10 (mouse Probe ID 93858_at) (chip A, 3rd)
1: Fold Change, A kinase anchor protein 2 (mouse probe 101435_at) (3rd, chip A, P/A call P) | Fold Change, DNA segment. Chr 16. ERATO Doi 269, expressed (mouse probe 97821_at) (3rd, chip A, P/A call P) | Fold Change, claudin 4 (mouse probe 101410_at) (3rd, chip A, P/A call P) | Fold Change, interferon-stimulated protein (20 kDa) (mouse probe 103432_at) (3rd, chip A, P/A call P) | Fold Change, deleted in bladder cancer chromosome region candidate 1 (human) Putative Ortholog (mouse probe 166806_at) (3rd, chip C, P/A call P) | Fold Change, intercellular adhesion molecule (mouse Probe ID 1011414_at) (chip A, 1st) | Fold Change, transglutaminase 2, C polypeptide (mouse Probe ID 93352_at) (chip A, 1st) | Fold Change, heparan sulfate (glucosamine) 3-)-sulfotransferase 1 (mouse Probe ID 102410_at) (chip A, 3rd) | Fold Change, intercellular adhesion molecule (mouse Probe ID 1011414_at) (chip A, 3rd) | Fold Change, osteoblast specific factor 2 (fasciclin I-like) (mouse Probe ID 92593_at) (chip A, 3rd) | Fold Change, thioredoxin reductase 1 (mouse Probe ID 99985_at) (chip A, 3rd) | Fold Change, RIKEN cDNA 2610017M01 gene (mouse Probe ID 163053_at) (chip B, 1st)
2.4: Fold Change, interleukin 1 receptor-like 1 (mouse probe 98500_at) (3rd, chip A, P/A call P)
8: Fold Change, arachidonate 15-lipoxygenase (mouse probe 98758_at) (3rd, chip A, P/A call P)
0.357: Fold Change, intercellular adhesion molecule (mouse Probe ID 1011414_at) (chip A, 2nd)
4.1: Fold Change, interferon gamma inducible protein 30 (mouse probe 164423_at) (3rd, chip B, P/A call A)
4.3: Fold Change, interferon-stimulated protein (15 kDa) (mouse Probe ID 98822_at) (chip A, 1st)
2.3: Fold Change, growth arrest and DNA-damage-inducible 45 gamma (mouse Probe ID 101979_at) (chip A, 1st) | Fold Change, nitric oxide synthase 2, inducible, macrophage (mouse Probe ID 104420_at) (chip A, 1st) | Fold Change, fructose bisphosphatase 1 (mouse Probe ID 96918_at) (chip A, 2nd)
1.1: Fold Change, DNA segment. Chr 16. ERATO Doi 269, expressed (mouse probe 97823_g_at) (3rd, chip A, P/A call P) | Fold Change, low density lipoprotein receptor-related protein associated protein 1 (mouse probe 161988_f_at) (3rd, chip A, P/A call P) | Fold Change, membrane-associated protein 17 (mouse probe 96935_at) (3rd, chip A, P/A call P) | Fold Change, decay accelerating factor 1 (mouse probe 164905_r_at) (3rd, chip B, P/A call A) | Fold Change, thrombospondin 1 (mouse Probe ID 160469_at) (chip A, 1st) | Fold Change, cadherin 6 (mouse Probe ID 101730_at) (chip A, 2nd) | Fold Change, cyclin D3 (mouse Probe ID 160545_at) (chip A, 2nd) | Fold Change, nitric oxide synthase 2, inducible, macrophage (mouse Probe ID 104420_at) (chip A, 2nd) | Fold Change, proteosome (prosome, macropain) subunit, beta type 9 (mouse Probe ID 93085_at) (chip A, 3rd)
5.4: Fold Change, growth arrest and DNA-damage-inducible 45 gamma (mouse Probe ID 101979_at) (chip A, 2nd)
1.6: Fold Change, matrix metalloproteinase 7 (mouse probe 92917_at) (3rd, chip A, P/A call A) | Fold Change, 2′-5′ oligoadenylate synthetase 1A (mouse Probe ID 102717_at) (chip A, 1st) | Fold Change, proteosome (prosome, macropain) subunit, beta type 9 (mouse Probe ID 93085_at) (chip A, 2nd) | Fold Change, interferon-induced protein with tetratricopeptide repeats 1 (mouse Probe ID 100981_at) (chip A, 3rd) | Fold Change, sialyltransferase 1 (beta-galactoside alpha-2,6-sialyltransferase) (mouse Probe ID 94431_at) (chip A, 3rd)
1.7: Fold Change, 2′-5′ oligoadenylate synthetase 1A (mouse Probe ID 102717_at) (chip A, 2nd) | Fold Change, small inducible cytokine B subfamily (Cys-X-Cys), member 10 (mouse Probe ID 93858_at) (chip A, 2nd) | Fold Change, thrombospondin 1 (mouse Probe ID 160469_at) (chip A, 2nd) | Fold Change, fructose bisphosphatase 1 (mouse Probe ID 96918_at) (chip A, 3rd)
2.1: Fold Change, proteosome (prosome, macropain) subunit, beta type 9 (mouse Probe ID 93085_at) (chip A, 1st)
0.833: Fold Change, low density lipoprotein receptor-related protein associated protein 1 (mouse probe 100086_at) (3rd, chip A, P/A call P) | Fold Change, cadherin 6 (mouse Probe ID 101730_at) (chip A, 1st) | Fold Change, transforming growth factor, beta 2 (mouse Probe ID 93300_at) (chip A, 2nd) | Fold Change, DnaJ (Hsp40) homolog, subfamily A, member 1 (mouse Probe ID 97261_at) (chip A, 3rd) | Fold Change, cyclin D3 (mouse Probe ID 160545_at) (chip A, 3rd) | Fold Change, transglutaminase 2, C polypeptide (mouse Probe ID 93352_at) (chip A, 3rd)
2.2: Fold Change, 2′-5′ oligoadenylate synthetase 1A (mouse Probe ID 102717_at) (chip A, 3rd) | Fold Change, interferon-stimulated protein (15 kDa) (mouse Probe ID 98822_at) (chip A, 3rd)
1.8: Fold Change, interferon gamma inducible protein 30 (mouse probe 97444_at) (3rd, chip A, P/A call A) | Fold Change, hydroxysteroid (17-beta) dehydrogenase 2 (mouse Probe ID 101891_at) (chip A, 1st) | Fold Change, interferon-induced protein with tetratricopeptide repeats 1 (mouse Probe ID 100981_at) (chip A, 1st) | Fold Change, thioredoxin reductase 1 (mouse Probe ID 161043_r_at) (chip A, 2nd)
0.5: Fold Change, phosphotidylinositol transfer protein, beta (mouse probe 102697_at) (3rd, chip A, P/A call A) | Fold Change, transforming growth factor, beta 2 (mouse Probe ID 93300_at) (chip A, 3rd)
1.9: Fold Change, met proto-oncogene (mouse probe 100309_at) (3rd, chip A, P/A call A) | Fold Change, cholesterol 25-hydroxylase (mouse probe 104509_at) (3rd, chip A, P/A call P) | Fold Change, decay accelerating factor 1 (mouse probe 107626_at) (3rd, chip B, P/A call P) | Fold Change, interferon-induced protein with tetratricopeptide repeats 1 (mouse Probe ID 100981_at) (chip A, 2nd) | Fold Change, growth arrest and DNA-damage-inducible 45 gamma (mouse Probe ID 101979_at) (chip A, 3rd)
0.4: Fold Change, heparan sulfate (glucosamine) 3-)-sulfotransferase 1 (mouse Probe ID 102410_at) (chip A, 2nd)
0.476: Fold Change, DnaJ (Hsp40) homolog, subfamily A, member 1 (mouse Probe ID 97261_at) (chip A, 1st)
1.3: Fold Change, matrix metalloproteinase 7 (mouse probe 162318_r_at) (3rd, chip A, P/A call A) | Fold Change, decay accelerating factor 1 (mouse probe 103617_at) (3rd, chip A, P/A call P) | Fold Change, SAM domain and HD domain, 1 (mouse Probe ID 103080_at) (chip A, 1st) | Fold Change, intercellular adhesion molecule (mouse Probe ID 96752_at) (chip A, 1st) | Fold Change, small inducible cytokine B subfamily (Cys-X-Cys), member 10 (mouse Probe ID 93858_at) (chip A, 1st) | Fold Change, SAM domain and HD domain, 1 (mouse Probe ID 103080_at) (chip A, 2nd) | Fold Change, sialyltransferase 1 (beta-galactoside alpha-2,6-sialyltransferase) (mouse Probe ID 94431_at) (chip A, 2nd) | Fold Change, thioredoxin reductase 1 (mouse Probe ID 161284_r_at) (chip A, 2nd) | Fold Change, transglutaminase 2, C polypeptide (mouse Probe ID 93352_at) (chip A, 2nd)
0.667: Fold Change, polycystic kidney disease 2 (mouse probe 100951_at) (3rd, chip A, P/A call P) | Fold Change, hydroxysteroid (17-beta) dehydrogenase 2 (mouse Probe ID 101891_at) (chip A, 2nd)
